Some results are limits rather than exact numbers.

In the assay the target is T1, human PDGFRβ (Homo sapiens, UniProt P09619).
T1 construct: C-terminal fragment of human PDGFRβ (amino acids 561-1106); GST; His; purchased Proqinase [Freiburg i.Brsg., Germany]; host or cells: insect cells [SF9]
Put plainly: PDGFRβ HTRF Assay (assay 6). The assay is classed as biochemical. The note with it: pIC50 class; 10 μM ATP; read-out: Enzymatic PDGFRβ activity (assay 6). The source says: Assay 6: PDGFRβ HTRF Assay
PDGFRβ inhibitory activity of compounds of the present invention was quantified employing the PDGFRβ HTRF assay as described in the following paragraphs.
As kinase, a GST-His fusion protein containing a C-terminal fragment of human PDGFRβ (amino acids 561-1106, expressed in insect cells [SF9] and purified by affinity chromatography, purchased from Proqinase [Freiburg i.Brsg., Germany] was used. As substrate for the kinase reaction the biotinylated poly-Glu, Tyr (4:1) copolymer (#61GT0BLA) from Cis Biointernational (Marcoule, France) was used.
For the assay 50 nl of a 100 fold concentrated solution of the test compound in DMSO was pipetted into a black low volume 384 well microtiter plate (Greiner Bio-One, Frickenhausen, Germany), 2 μl of a solution of PDGFRβ in aqueous assay buffer [50 mM HEPES/NaOH pH 7.5, 10 mM MgCl2, 2.5 mM dithiothreitol, 0.01% (v/v) Triton-X100 (Sigma)] were added and the mixture was incubated for 15 min at 22° C. to allow pre-binding of the test compounds to the enzyme before the start of the kinase reaction. Then the kinase reaction was started by the addition of 3 μl of a solution of adenosine-tri-phosphate (ATP, 16.7 μM=>final conc. in the 5 μl assay volume is 10 μM) and substrate (2.27 μg/ml=>final conc. in the 5 μl assay volume is 1.36 μg/ml [˜30 nM]) in assay buffer and the resulting mixture was incubated for a reaction time of 25 min at 22° C. The concentration of PDGFRβ in the assay was adjusted depending of the activity of the enzyme lot and was chosen appropriate to have the assay in the linear range, typical enzyme concentrations were in the range of about 125 pg/μl (final conc. in the 5 μl assay volume). The reaction was stopped by the addition of 5 μl of a solution of HTRF detection reagents (200 nM streptavidine-XLent [Cis Biointernational] and 1.4 nM PT66-Eu-Chelate, an europium-chelate labelled anti-phospho-tyrosine antibody from Perkin Elmer) in an aqueous EDTA-solution (100 mM EDTA, 0.2% (w/v) bovine serum albumin in 50 mM HEPES/NaOH pH 7.5).
The resulting mixture was incubated 1 h at 22° C. to allow the binding of the biotinylated phosphorylated peptide to the streptavidine-XLent and the PT66-Eu-Chelate. Subsequently the amount of phosphorylated substrate was evaluated by measurement of the resonance energy transfer from the PT66-Eu-Chelate to the streptavidine-XLent. Therefore, the fluorescence emissions at 620 nm and 665 nm after excitation at 350 nm was measured in a HTRF reader, e.g. a Rubystar (BMG Labtechnologies, Offenburg, Germany) or a Viewlux (Perkin-Elmer). The ratio of the emissions at 665 nm and at […] was taken as the measure for the amount of phosphorylated substrate. […]

T1 sequence (P09619 561-1106): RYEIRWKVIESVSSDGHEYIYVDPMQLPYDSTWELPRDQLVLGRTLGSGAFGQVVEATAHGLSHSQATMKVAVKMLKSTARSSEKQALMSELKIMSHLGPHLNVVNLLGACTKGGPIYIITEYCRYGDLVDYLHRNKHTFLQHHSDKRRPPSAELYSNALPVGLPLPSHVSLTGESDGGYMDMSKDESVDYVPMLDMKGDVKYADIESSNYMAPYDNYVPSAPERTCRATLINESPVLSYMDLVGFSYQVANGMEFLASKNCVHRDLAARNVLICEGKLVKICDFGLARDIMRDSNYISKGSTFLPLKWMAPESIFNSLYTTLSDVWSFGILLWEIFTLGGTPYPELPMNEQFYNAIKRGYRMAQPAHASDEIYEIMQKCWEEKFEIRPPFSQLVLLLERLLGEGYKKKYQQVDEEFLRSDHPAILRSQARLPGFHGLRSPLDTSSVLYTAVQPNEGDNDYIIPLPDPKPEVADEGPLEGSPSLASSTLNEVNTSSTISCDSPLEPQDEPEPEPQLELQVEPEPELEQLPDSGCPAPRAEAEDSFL

Turning to `Cn1ncc2c(C#Cc3cccc(NC(=O)c4cccc(C(F)(F)F)c4)c3)cncc21` [Example 1.5, N-[3-(1-Methyl-1H-pyrazolo[3,4-c]pyridin-4-ylethynyl)-phenyl]-3-trifluoromethyl-benzamide], the IC50 is < 1 µM. For the molecule `Cc1ccc(NC(=O)c2cccc(C(F)(F)F)c2)cc1C#Cc1cncc2c1cnn2C` [Example 1.6, N-[4-Methyl-3-(1-methyl-1H-pyrazolo[3,4-c]pyridin-4-ylethynyl)-phenyl]-3-trifluoromethyl-benzamide], the IC50 is < 1 µM. As for `Cn1ncc2c(C#Cc3cccc(NC(=O)Nc4ccccc4)c3)cncc21` [Example 2.1, 1-[3-(1-Methyl-1H-pyrazolo[3,4-c]pyridin-4-ylethynyl)-phenyl]-3-phenyl-urea], the figure is < 1 µM; as for `Cc1ccc(NC(=O)Nc2cccc(C(F)(F)F)c2)cc1C#Cc1cncc2c1cnn2C` [Example 2.4, 1-[4-Methyl-3-(1-methyl-1H-pyrazolo[3,4-c]pyridin-4-ylethynyl)-phenyl]-3-(3-trifluoromethyl-phenyl)-urea], < 1 µM.
